According to US9181189B2, “Lipogenesis inhibitor compounds” (PIERRE FABRE DERMO-COSMETIQUE, priority 2011, dated 2015):

Tests used:
[1] = test system: differentiated sebocytes (Tel-E6E7 line); experiment: Production of intracellular lipids by differentiated sebocytes (Nile Red / Adipored quantitation); type: cell-based, human; conditions: for production of lipids by the sebocytes: Tel-E6E7 line differentiated 7 days in the presence of testosterone and other supplements, FIG. 1; for inhibitor effect on lipogenesis directly induced by DHT: Tel-E6E7 line differentiated in the presence of DHT and other supplements, FIG. 2
Procedure: The Tel-E6E7 line (courtesy of Dr. Stephen Lyle, University of Massachusetts, USA) is a human epithelial line derived from stem cells of the hair follicle bulb.
Differentiation into sebocytes of the Tel-E6E7 line was conducted under the conditions described by S. Lyle. The cells were seeded in 24-well plates at a density of 25 000 cells/cm^2 in DME medium supplemented with 46% HamF12 medium, 6% foetal calf serum (FCII, Hyclone), 2% human serum and 10 nM EGF. Two days after seeding, the differentiation of the cells into sebocytes was induced by adding the following supplements to the culture medium: 0.1 μM testosterone (or DHT (0.1 μM)), 1 μM Troglitazone, 100 μM WyA4643 and 10 nM Insulin. The derivatives to be tested were added at the same time. Sebocyte differentiation was continued for 7 days. The culture medium and the derivatives to be tested were renewed every 2-3 days. The production of intracellular lipids was measured by quantitation of the Nile Red marker (Adipored kit, Lonza) and following the manufacturer's instructions. The amount of measured fluorescence (Relative Fluorescence Units) is proportional to the quantity of accumulated neutral intracellular lipids. All tested conditions were performed in duplicate and repeated three times.
The inventors studied the variations in lipid levels produced by the sebocytes after a differentiation time of 7 days in the presence of testosterone treated with the derivatives of the present invention.

[2] = biological target: T1, type-1 5-α-reductase (Homo sapiens, UniProt P18405); conditions: fibroblast cultures; cited from earlier work
T1 construct: endogenous in cells
T1 sequence (P18405 1-259): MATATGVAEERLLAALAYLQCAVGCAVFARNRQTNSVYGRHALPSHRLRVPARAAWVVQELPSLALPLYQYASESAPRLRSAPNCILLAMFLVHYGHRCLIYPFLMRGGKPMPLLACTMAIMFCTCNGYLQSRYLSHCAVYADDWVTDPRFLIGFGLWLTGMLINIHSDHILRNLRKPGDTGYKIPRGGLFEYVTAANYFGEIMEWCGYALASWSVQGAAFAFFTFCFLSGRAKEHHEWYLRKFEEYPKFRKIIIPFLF

SMILES | production of lipids by the sebocytes ([1]; 10 μM) | production of lipids by the sebocytes ([1]; 5 μM) | inhibiting effect on type-1 5-α-reductase [2] | inhibitor effect on lipogenesis directly induced by DHT [1]
CCCCCCCCCCCC(=O)OCC(O)COC(=O)C1CCCNC1 (centres unmarked) [3-(dodecanoyloxy)-2-hydroxypropyl piperidine-3-carboxylate] | significant decrease |  |  | 
CCCCCCCCCCCC(=O)OCC(O)COC(=O)c1cccnc1 (centres unmarked) [glyceryl laurate nicotinate, 3-(dodecanoyloxy)-2-hydroxypropyl nicotinate] | decreases most significantly | decreases most significantly |  | 
CCCCCCCCCCCC(=O)OCC(O)CO (centres unmarked) [glyceryl laurate, 2,3-dihydroxypropyl dodecanoate] | does not reach the significance threshold | does not reach the significance threshold | inhibiting effect | 
O=C(O)c1cccnc1 [nicotinic acid] |  |  |  | do not show any inhibitor effect
O=C(O)C1CCCNC1 (centres unmarked) [nipecotic acid] |  |  |  | do not show any inhibitor effect
